# Laboratory results as given in patent US20260274807A1 (University of Health Sciences and Pharmacy in St. Louis, priority 2023, published 2026).
# Tests used:
# ERRγ = target: T1, ERRγ (Homo sapiens, UniProt P62508); test: ERRE luciferase reporter assay in HEK293 cells transfected with pcDNA3.1 ERRγ; format: cell-based; set-up: key to EC50 (ERRγ) μM: * <1 μM; ** 1-5 μM; *** >5 μM; i.a. (inactive); settings: HEK293 cells transfected with ERRE reporter construct and pcDNA3.1 ERRγ; compound for 24 hours; luciferase activity
# T1 construct: expressed in transfected cells; host or cells: HEK293
# T1 sequence (P62508 1-458): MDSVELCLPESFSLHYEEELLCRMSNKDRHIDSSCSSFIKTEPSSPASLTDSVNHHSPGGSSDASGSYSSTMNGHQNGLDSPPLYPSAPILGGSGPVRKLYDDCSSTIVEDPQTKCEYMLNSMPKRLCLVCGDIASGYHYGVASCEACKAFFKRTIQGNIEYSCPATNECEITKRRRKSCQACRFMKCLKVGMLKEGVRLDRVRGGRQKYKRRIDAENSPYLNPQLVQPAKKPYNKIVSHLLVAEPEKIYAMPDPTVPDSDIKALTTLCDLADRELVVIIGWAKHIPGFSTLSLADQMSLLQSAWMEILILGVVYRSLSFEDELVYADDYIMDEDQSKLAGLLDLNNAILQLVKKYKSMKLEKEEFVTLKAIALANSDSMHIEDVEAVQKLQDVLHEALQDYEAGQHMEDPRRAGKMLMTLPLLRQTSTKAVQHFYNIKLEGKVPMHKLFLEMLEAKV
# Experimental: (§1) HEK293 cells were maintained in Dulbecco's modified Eagles medium (DMEM) supplemented with 10% fetal bovine serum at 37° C. under […]. […] Cells were transfected with ERRE reporter construct and pcDNA3.1 ERRα or ERRγ. Twenty-four-hours post-transfection, the cells were treated with vehicle or compound (various concentrations) for 24 hours (4 wells per dose). Luciferase activity was measured using the One-Glo Tox luciferase reporter assay system (Promega) and EC50s were calculated using GraphPad Prism software.
# ERRα = target: T2, ERRα (Homo sapiens, UniProt P11474); test: ERRE luciferase reporter assay in HEK293 cells transfected with pcDNA3.1 ERRα; format: cell-based; set-up: key to EC50 (ERRα) μM: * <1 μM; ** 1-5 μM; *** >5 μM; i.a. (inactive); settings: HEK293 cells transfected with ERRE reporter construct and pcDNA3.1 ERRα; compound for 24 hours; luciferase activity
# T2 construct: expressed in transfected cells; host or cells: HEK293
# T2 sequence (P11474 1-423): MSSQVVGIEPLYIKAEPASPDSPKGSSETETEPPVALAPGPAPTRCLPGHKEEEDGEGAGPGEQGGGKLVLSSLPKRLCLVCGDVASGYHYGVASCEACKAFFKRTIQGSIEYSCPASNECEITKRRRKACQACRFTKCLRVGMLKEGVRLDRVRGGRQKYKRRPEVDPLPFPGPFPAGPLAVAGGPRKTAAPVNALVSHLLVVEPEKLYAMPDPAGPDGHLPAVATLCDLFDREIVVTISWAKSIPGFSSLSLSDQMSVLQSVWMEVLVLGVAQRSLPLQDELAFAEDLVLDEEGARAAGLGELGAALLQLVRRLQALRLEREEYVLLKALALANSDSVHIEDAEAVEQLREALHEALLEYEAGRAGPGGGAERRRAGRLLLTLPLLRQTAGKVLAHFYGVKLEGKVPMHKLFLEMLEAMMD
# Experimental: as §1
EC50 (ERRγ),EC50 (ERRα),EC50 (ERRγ) μM (ERRγ),EC50 (ERRα) μM (ERRα),SMILES
1000 to 5000 nM,< 1000 nM,–,–,"COc1ccc(-c2nnc(-c3ccc(C(F)(F)F)cc3)s2)cn1 [Entry 1071, 2-(6-methoxypyridin-3-yl)-5-(4-(trifluoromethyl)phenyl)-1,3,4-thiadiazole]"
< 1000 nM,< 1000 nM,–,–,"COc1ccc(-c2nnc(-c3ccc4ccccc4n3)o2)cc1 [Entry 23, 2-(4-methoxyphenyl)-5-(quinolin-2-yl)-1,3,4-oxadiazole]"
1000 to 5000 nM,1000 to 5000 nM,–,–,"Nc1ccccc1-c1nnc(-c2ccccc2)o1 [Entry 68, 2-(5-phenyl-1,3,4-oxadiazol-2-yl)aniline]"
< 1000 nM,< 1000 nM,–,–,"Nc1ccc(-c2nnc(-c3ccccc3)s2)cc1 [Entry 1030, 4-(5-phenyl-1,3,4-thiadiazol-2-yl)aniline]"
< 1000 nM,< 1000 nM,–,–,"FC(F)(F)c1cccc(-c2nnc(-c3ccccc3)o2)c1 [Entry 56, 2-phenyl-5-(3-(trifluoromethyl)phenyl)-1,3,4-oxadiazole]"
< 1000 nM,< 1000 nM,–,–,"Cc1ccc(-c2nnc(-c3cccs3)o2)cc1 [Entry 33, 2-(thiophen-2-yl)-5-(p-tolyl)-1,3,4-oxadiazole]"
< 1000 nM,< 1000 nM,–,–,"CC(C)(C)c1ccc(-c2nnc(-c3ccccc3N)s2)cc1 [Entry 1027, 2-(5-(4-(tert-butyl)phenyl)-1,3,4-thiadiazol-2-yl)aniline]"
1000 to 5000 nM,1000 to 5000 nM,–,–,"FC(F)(F)c1cccc(-c2nnc(-c3ccccc3)s2)c1 [Entry 1014, 2-phenyl-5-(3-(trifluoromethyl)phenyl)-1,3,4-thiadiazole]"
< 1000 nM,< 1000 nM,–,–,"Cc1ccccc1-c1nnc(-c2ccccc2)s1 [Entry 1015, 2-phenyl-5-(o-tolyl)-1,3,4-thiadiazole]"
> 5000 nM,1000 to 5000 nM,–,–,"Cc1ccc(-c2nnc(-c3ccc(C(F)(F)F)cc3)o2)o1 [Entry 45, 2-(5-methylfuran-2-yl)-5-(4-(trifluoromethyl)phenyl)-1,3,4-oxadiazole]"
< 1000 nM,< 1000 nM,–,–,"FC(F)(F)c1ccc(-c2nnc(-c3ccccn3)s2)cc1 [Entry 1009, 2-(pyridin-2-yl)-5-(4-(trifluoromethyl)phenyl)-1,3,4-thiadiazole]"
< 1000 nM,< 1000 nM,–,–,"COc1ccc(-c2nnc(-c3ccc(C)cc3)o2)cc1 [Entry 42, 2-(4-methoxyphenyl)-5-(p-tolyl)-1,3,4-oxadiazole]"
< 1000 nM,< 1000 nM,–,–,"Cc1ccc(-c2nnc(-c3ccco3)o2)cc1 [Entry 31, 2-(furan-2-yl)-5-(p-tolyl)-1,3,4-oxadiazole]"
> 5000 nM,1000 to 5000 nM,–,–,COc1ccc(-c2nnc(-c3cccc(C(F)(F)F)c3)o2)cc1
< 1000 nM,< 1000 nM,–,–,"Cc1ccc(-c2nnc(-c3ccccc3Cl)s2)cc1 [Entry 1003, 2-(2-chlorophenyl)-5-(p-tolyl)-1,3,4-thiadiazole]"
< 1000 nM,< 1000 nM,–,–,"Nc1cccc(-c2nnc(-c3ccccc3)o2)c1 [Entry 69, 3-(5-phenyl-1,3,4-oxadiazol-2-yl)aniline]"
< 1000 nM,< 1000 nM,–,–,"COc1cccc(-c2nnc(-c3ccccc3)s2)c1 [Entry 1012, 2-(3-methoxyphenyl)-5-phenyl-1,3,4-thiadiazole]"
1000 to 5000 nM,< 1000 nM,–,–,"FC(F)(F)c1ccc(-c2nnc(-c3ccccc3Cl)o2)cc1 [Entry 53, 2-(2-chlorophenyl)-5-(4-(trifluoromethyl)phenyl)-1,3,4-oxadiazole]"
< 1000 nM,< 1000 nM,–,–,"CC(C)(C)c1ccc(-c2nnc(-c3ccccc3[N+](=O)[O-])o2)cc1 [Entry 83, 2-(4-(tert-butyl)phenyl)-5-(2-nitrophenyl)-1,3,4-oxadiazole]"
< 1000 nM,< 1000 nM,–,–,"FC(F)(F)c1cccc(-c2nnc(-c3cccs3)o2)c1 [Entry 58, 2-(thiophen-2-yl)-5-(3-(trifluoromethyl)phenyl)-1,3,4-oxadiazole]"

EC50 (ERRγ),EC50 (ERRα),EC50 (ERRγ) μM (ERRγ),EC50 (ERRα) μM (ERRα),SMILES
< 1000 nM,< 1000 nM,–,–,"Cc1ccc(-c2nnc(-c3ccccn3)o2)cc1 [Entry 36, 2-(pyridin-2-yl)-5-(p-tolyl)-1,3,4-oxadiazole]"
1000 to 5000 nM,1000 to 5000 nM,–,–,"COc1ccc([N+](=O)[O-])c(-c2nnc(-c3ccccc3)s2)c1 [Entry 1035, 2-(5-methoxy-2-nitrophenyl)-5-phenyl-1,3,4-thiadiazole]"
< 1000 nM,< 1000 nM,–,–,"c1ccc(-c2nnc(C34CC5CC(CC(C5)C3)C4)s2)cc1 [Entry 1007, 2-((1S,3S)-adamantan-1-yl)-5-phenyl-1,3,4-thiadiazole]"
< 1000 nM,< 1000 nM,–,–,"COc1ccccc1-c1nnc(-c2ccccc2)s1 [Entry 1013, 2-(2-methoxyphenyl)-5-phenyl-1,3,4-thiadiazole]"
< 1000 nM,< 1000 nM,–,–,"COc1ccc(-c2nnc(-c3cccc(OC)c3)o2)cc1 [Entry 29, 2-(3-methoxyphenyl)-5-(4-methoxyphenyl)-1,3,4-oxadiazole]"
< 1000 nM,< 1000 nM,–,–,"O=[N+]([O-])c1ccccc1Cc1nnc(-c2ccc(C(F)(F)F)cc2)o1 [Entry 16, 2-(2-nitrobenzyl)-5-(4-(trifluoromethyl)phenyl)-1,3,4-oxadiazole]"
1000 to 5000 nM,1000 to 5000 nM,–,–,"c1ccc(Cc2nnc(-c3ccccc3)s2)cc1 [Entry 1038, 2-benzyl-5-phenyl-1,3,4-thiadiazole]"
1000 to 5000 nM,1000 to 5000 nM,–,–,"O=[N+]([O-])c1ccccc1Cc1nnc(-c2ccc(C(F)(F)F)cc2)s1 [Entry 1028, 2-(2-nitrobenzyl)-5-(4-(trifluoromethyl)phenyl)-1,3,4-thiadiazole]"
–,–,i.a.,i.a.,"Cc1ccc(C(=O)Nc2nnc(-c3ccccc3Cl)s2)cc1 [Entry 1034, N-(5-(2-chlorophenyl)-1,3,4-thiadiazol-2-yl)-4-methylbenzamide]"
< 1000 nM,< 1000 nM,–,–,"COC(=O)c1ccc(-c2nnc(-c3ccccc3Cl)s2)cc1 [Entry 1051, methyl 4-(5-(2-chlorophenyl)-1,3,4-thiadiazol-2-yl)benzoate]"
< 1000 nM,< 1000 nM,–,–,"Nc1ccc(-c2nnc(-c3ccccc3)o2)cc1 [Entry 70, 4-(5-phenyl-1,3,4-oxadiazol-2-yl)aniline]"
< 1000 nM,< 1000 nM,–,–,"Cc1ccc(-c2nnc(-c3scnc3C)s2)cc1 [Entry 1080, 2-(4-methylthiazol-5-yl)-5-(p-tolyl)-1,3,4-thiadiazole]"
< 1000 nM,< 1000 nM,–,–,"COc1ccc(-c2nnc(-c3ccco3)s2)cc1 [Entry 1019, 2-(furan-2-yl)-5-(4-methoxyphenyl)-1,3,4-thiadiazole]"
< 1000 nM,< 1000 nM,–,–,"Cc1ccc(-c2nnc(-c3cccc(Cl)c3)s2)cc1 [Entry 1045, 2-(3-chlorophenyl)-5-(p-tolyl)-1,3,4-thiadiazole]"
1000 to 5000 nM,1000 to 5000 nM,–,–,"Cc1ccc(-c2nnc(-c3ccccc3[N+](=O)[O-])o2)o1 [Entry 76, 2-(5-methylfuran-2-yl)-5-(2-nitrophenyl)-1,3,4-oxadiazole]"
> 5000 nM,1000 to 5000 nM,–,–,"O=[N+]([O-])c1cccc(-c2nnc(-c3cccc(C(F)(F)F)c3)o2)c1 [Entry 63, 2-(3-nitrophenyl)-5-(3-(trifluoromethyl)phenyl)-1,3,4-oxadiazole]"
1000 to 5000 nM,1000 to 5000 nM,–,–,"O=[N+]([O-])c1ccc(-c2nnc(-c3ccccc3[N+](=O)[O-])o2)cc1 [Entry 11, 2-(2-nitrophenyl)-5-(4-nitrophenyl)-1,3,4-oxadiazole]"
1000 to 5000 nM,1000 to 5000 nM,–,–,"FC(F)(F)c1ccc(-c2nnc(-c3ccccc3)o2)cc1 [Entry 43, 2-phenyl-5-(4-(trifluoromethyl)phenyl)-1,3,4-oxadiazole]"
< 1000 nM,< 1000 nM,–,–,COc1ccc(-c2nnc(-c3ccc(Br)cc3)o2)cc1 [Entry 5]
1000 to 5000 nM,1000 to 5000 nM,–,–,"O=[N+]([O-])c1c(Cl)cccc1-c1nnc(-c2ccccc2)o1 [Entry 90, 2-(3-chloro-2-nitrophenyl)-5-phenyl-1,3,4-oxadiazole]"
